According to US8871812B2, “Therapeutic regimen comprising PEG-interferon, ribavirin and VX-950 for the treatment of hepatitis” (priority 2008, dated 2014):

Tests used:
[1] = tested on: AST (aspartate aminotransferase); assay: AST level upon administration of VX-950; format: in vivo
From the text: ALT is an enzyme that is present in liver cells; when liver cells are damaged or inflamed, ALT leaks from the cell into the blood. Blood ALT levels are useful as a marker of liver inflammation or damage.

[2] = tested on: alanine aminotransferase (ALT); assay: Serum ALT level during 14-day VX-950 dosing; format: in vivo, human; conditions: all groups, elevated at baseline
From the text: The serum alanine aminotransferase (ALT) level can be measured using commercially available methods. Mean ALT levels, elevated at baseline, decreased during dosing in all groups. Mean ALT levels increased, returned toward baseline, in all dose groups during follow up.

[3] = set-up: species or system human; conditions: in vivo
From the text: This study was designed to provide information on the kinetics of HCV following treatment with VX-950 and peginterferon alfa-2a administered over 14 days.
This study randomized twenty treatment-naïve patients with chronic genotype 1 hepatitis C infection to three dosing arms (Table 6). At the completion of the 14-day study, 19 of 20 patients chose to begin peginterferon alfa-2a/ribavirin, starting within 5 days of completing the 14-day dosing period; as the other one declined to take the combination of Peg-IRN-2a and ribavirin. Clinic visits were conducted at the discretion of the investigators, after completion of the 1-week and 12-week study-mandated follow-up visits. Nineteen patients have been followed through 24 weeks after the completion of the study dosing. After discussion with the treating physicians, ten (4 in VX-950 and 6 in VX-950/peginterferon alfa-2a) patients stopped peginterferon alfa-2a/ribavirin treatment at 24 weeks.

[4] = tested on: NS3 protease; assay: In vitro cleavage of TRIF; format: biochemical, HCV
From the text: Furthermore, NS3/4A is known to be involved in evasion of innate defenses, by e.g., TRIF-dependent mechanisms (as well as viral polyprotein processing). This immune evasion leads to viral persistence. Accordingly, a compound that inhibits both viral polyprotein processing and evasion of innate defenses is desirable.
TRIF binds to non-prime side of the NS3 protease active site. VX-950 binds to the same non-prime side of the active site as TRIF and blocks TRIP cleavage.

[5] = tested on: WT HCVpro; assay: IFN dependent gene expression / IFNβ promoter activity in Sendai virus infected Huh7 cells; format: cell-based
From the text: IFNβ promoter activity decreases in response to Sendai virus stimulation in the presence of WT HCVpro.

[6] = tested on: HCV genotype 1; assay: C208 Phase 2 study of telaprevir q8h or q12h with peginterferon alfa-2a or alfa-2b and ribavirin: HCV RNA; format: in vivo, human; conditions: for RVR (subjects with undetectable HCV RNA, <10 IU/mL, at week 4): listed as TVR
Protocol: Background: Study 0208 is an ongoing open-label, randomized Phase 2 study of telaprevir (TVR) administered q8h or q12h in combination with peginterferon-alfa-2a (peginterferon-alfa-2a) or peginterferon-alfa-2b and ribavirin (T/PR) in treatment-naïve subjects with HCV genotype 1 infection. We report the results of an interim analysis conducted at week 12 of treatment.
Subjects in all arms received T/PR treatment for 12 weeks, and will subsequently receive either 12 or 36 additional weeks of PR based on rapid virologic response (RVR) criterion. Subjects who met the definition of viral breakthrough (≧1-log increase in HCV RNA above nadir) discontinued TVR dosing and will complete 48 weeks of PR. An intent-to-treat analysis was performed when all treated subjects had completed week 4 of treatment or had discontinued earlier than week 4. The analysis also assessed all treatment or TVR dosing discontinuations including subjects who discontinued beyond week 4, up to the time of data cutoff. The proportion of subjects with HCV RNA below the limit of detection (TaqMan assay LOD 10 IU/mL) at week 4 (RVR) is reported.
C208 is an ongoing, open-label, randomized, multicenter, Phase 2 exploratory study. Adult, treatment-naïve subjects with chronic HCV genotype 1 infection were enrolled, including subjects with bridging fibrosis. Inclusion criteria were consistent with those used in prior HCV studies. Subjects received 12 weeks of T/PR, followed by either 12 or 36 additional weeks of PR based on extended rapid virologic response (RVR) criterion (FIG. 1). Subjects with HCV RNA>1000 IU/mL at Week 4, 6 or 8 were required to discontinue TVR dosing and complete 48 weeks of PR.
An interim intent-to-treat (ITT) analysis was performed and is presented in this report, which includes data obtained for all subjects randomized had completed week 12 of treatment or had discontinued earlier. The primary efficacy endpoint was the proportion of subjects with HCV RNA below the limit of detection (LOD, 10 IU/mL) at different timepoints throughout the first 12 weeks of dosing. HCV RNA levels were measured using the TAQMAN™ HCV RNA assay v2.0 (Roche Molecular Systems Inc., Branchburg, N.J., U.S.A.).
Assessment of virologic breakthrough (defined as a >1-log 10 increase in HCV RNA from nadir, or HCV RNA>100 IU/mL in subjects whose HCV RNA had previously become undetectable [<10 IU/mL] at all assessment timepoints) was performed. Pharmacokinetics and viral dynamics were assessed by pre-defined serial measurements of plasma concentrations of TVR and HCV RNA, respectively, from baseline to Week 12. Pharmacokinetic analysis of TVR was performed using non-compartmental methods for data from full pharmacokinetic profiles. A viral dynamics model, which included fixed effects for treatment and random effects for clearance, drug effect, drop and death rate in infected cells with unstructured variance covariance matrix, was also constructed. Safety and tolerability were assessed by monitoring adverse events (AEs), laboratory abnormalities and cardiovascular parameters.

[7] = tested on: neopterin; assay: Serum neopterin concentration (competitive ELISA) during 14-day VX-950 dosing; format: in vivo, human; conditions: 450 mg q8h and 1250 mg q12h dose groups, versus 750 mg q8h
Protocol: Accordingly, applicants determined the changes in serum neopterin concentration as a marker of monocyte/macrophage activity during administration of an inhibitor of (HCV) NS3·4A protease. As described herein, VX-950 was administered for 14 days in a randomized, double blind, placebo controlled, multiple-dose study in 34 patients infected with HCV genotype 1. Patients received VX-950 450 mg q8h (n=10), 750 mg q8h (n=8), 1250 mg q12h (n=10), or placebo (n=6). Serum neopterin concentrations were measured by a quantitative competitive ELISA (ELItest® Neopterin, Brahms, Hennigsdorf, Germany) at pretreatment, at day 7 and 14, and at day 10 of follow-up. The lower limit of detection (LLD) was 2 nmol/I. HCV RNA was assessed at frequent intervals during the study by real-time PCR (COBAS TAQMAN™ HCV Test; linear dynamic range of 3.0 ×10^1 to 2.0 ×10^8 HCV RNA IU/ml; LLD of 10 HCV RNA IU/ml; Roche Diagnostics, Branchburg, N.J.).

[8] = Week 4, range across the four treatment groups

Question: What does the source list for `CCC[C@H](NC(=O)[C@@H]1[C@H]2CCC[C@H]2CN1C(=O)[C@@H](NC(=O)[C@@H](NC(=O)c1cnccn1)C1CCCCC1)C(C)(C)C)C(=O)C(=O)NC1CC1` [VX-950]?
Answer: AST levels [1]: decreased; Mean ALT levels [2]: decreased; Tolerability [3]: well tolerated; cleavage of TRIF [4]: inhibits in vitro cleavage of TRIF; IFN dependent gene expression ([5]; Sendai virus infected Huh7 cells): restores IFN dependent gene expression; IFNβ promoter activation ([5]; Sendai virus stimulation in the presence of WT HCVpro): overcomes the WT HCVpro mediated suppression of IFNβ promoter activation; subjects who achieved <10 IU/mL HCV RNA [6, 8]: 67-83%; subjects who achieved <25 IU/mL HCV RNA [6, 8]: 87-96%; subjects who achieved <10 IU/mL HCV RNA ([6]; Week 12, range across the four treatment groups): 83-93%; RVR (subjects with undetectable HCV RNA, <10 IU/mL, at week 4) ([6]; arm A: TVR 750 mg q8h + Peg-IFN alfa-2a 180 μg/wk + ribavirin 1000-1200 mg/d (N 40)): 82%; number of subjects with viral breakthrough up to week 4 ([6]; arm A: TVR 750 mg q8h + Peg-IFN alfa-2a + RBV): 0; RVR (subjects with undetectable HCV RNA, <10 IU/mL, at week 4) ([6]; arm B: TVR 750 mg q8h + Peg-IFN alfa-2b 1.5 μg/kg/wk + ribavirin 800-1200 mg/d (N 42)): 71%; number of subjects with viral breakthrough up to week 4 ([6]; arm B: TVR 750 mg q8h + Peg-IFN alfa-2b + RBV): 2; RVR (subjects with undetectable HCV RNA, <10 IU/mL, at week 4) ([6]; arm C: TVR 1125 mg q12h + Peg-IFN alfa-2a 180 μg/wk + ribavirin 1000-1200 mg/d (N 40)): 85%; number of subjects with viral breakthrough up to week 4 ([6]; arm C: TVR 1125 mg q12h + Peg-IFN alfa-2a + RBV): 2; RVR (subjects with undetectable HCV RNA, <10 IU/mL, at week 4) ([6]; arm D: TVR 1125 mg q12h + Peg-IFN alfa-2b 1.5 μg/kg/wk + ribavirin 800-1200 mg/d (N 39)): 68%; number of subjects with viral breakthrough up to week 4 ([6]; arm D: TVR 1125 mg q12h + Peg-IFN alfa-2b + RBV): 1; additional breakthroughs after discontinuation of TVR ([6]; both in patients infected with genotype 1a): 2; Patients with viral breakthrough while on TVR ([6]; q8hr alfa-2a arm): 1; Patients with viral breakthrough while on TVR ([6]; q8hr alfa-2b arm): 3; Patients with viral breakthrough while on TVR ([6]; q12 hr alfa-2a arm): 2; Patients with viral breakthrough while on TVR ([6]; q12 hr alfa-2b arm): 3; change in mean neopterin levels [7]: decreases in mean neopterin levels were smaller
